Reference: article PMC7469199, “Immunosuppressive Activities of Novel PLA2 Inhibitors from Xenorhabdus hominickii, an Entomopathogenic Bacterium” (Insects, 2020)

How the values were obtained:
[1] = tested on: hemocyte PLA2 of S. exigua; assay: Nonspecific (total) hemocyte PLA2 activity, pyrene-labeled phospholipid fluorometric assay; assay type: biochemical, Spodoptera exigua; conditions: for Median Inhibitory Concentrations (IC50), Total PLA2: hemocyte extract of S. exigua L5 larvae, synthetic compounds; for Inhibitory activity against hemocyte PLA2 (in words): S. exigua hemocyte PLA2, extracts, fractions or synthetic compounds
Description: Hemocyte PLA2 activity was fluorometrically determined with a pyrene-labeled phospholipid substrate using a spectrofluorometer (VICTOR multi-label plate reader, PerkinElmer, Waltham, MA, USA) at excitation and emission wavelengths of 345 and 398 nm, respectively. For measuring PLA2 activity, hemolymph was collected from ~10 L5 larvae. Hemocytes and plasma were separated by centrifugation at 800× g for 3 min at 4 °C. Hemocytes were then homogenized in 500 µL of PBS with a polytron (Ultra-Turrax T8, Ika Laboratory, Funkentshort, Germany). After centrifugation at 14,000× g for 5 min at 4 °C, protein concentration of the supernatant was determined by Bradford assay using bovine serum albumin (BSA) as the standard. The reaction mixture was prepared in a 96-well microplate by adding 129 μL of 50 mM Tris buffer (pH 7.0), 2 μL of 1 M CaCl2, and 2 μL of 10% BSA into each well. A sample solution consisted of 5 μL of test bacterial metabolites and 10 μL of hemocyte enzyme extract ([…]). The plate was then incubated at room temperature for 30 min. Enzyme reaction was then initiated by adding pyrene-labeled PL substrate (2 μL) to the reaction mixture.

[2] = tested on: hemocyte nodule formation; assay: Nodulation assay after E. coli injection in L5 larvae; assay type: in vivo, Spodoptera exigua; conditions: for Median Inhibitory Concentration (IC50), Nodulation: injected into L5 larvae with E. coli, nodules counted after 8 h
Description: To assess nodule formation, immune challenge was performed by injecting 3 µL of Escherichia coli Top10 (10^4 cells/larva) (Invitrogen, Madison, WI, USA) through the abdominal proleg of L5 larvae using a microsyringe (Hamilton, Reno, NV, USA). After incubating at 25 °C for 8 h, test insects were dissected to count the number of melanized nodules under a stereo microscope (Stemi SV11, Zeiss, Jena, Germany) at 50× magnification. For chemical test, 1 µL aliquot of test chemical at different concentrations was injected into each larva along with E. coli. AA was injected at 10 μg per larva. Each treatment was independently replicated five times.

secretory PLA2 (sPLA2) = assay: Secretory PLA2 (sPLA2) activity; assay type: biochemical, Spodoptera exigua; conditions: for Median Inhibitory Concentrations (IC50), sPLA2: S. exigua, synthetic compounds; for Potency for inhibiting sPLA2 (in words): based on IC50 values
Description: (§1) To characterize PLA2 inhibition by test chemicals, activities of two different PLA2s [secretory PLA2 (sPLA2) and cytosolic PLA2 (cPLA2)] were assessed with methods described by Vatanparast et al..

[3] = tested on: hemocyte phagocytosis of S. exigua; assay: Phagocytosis assay with FITC-labeled E. coli in L5 larvae; assay type: in vivo, Spodoptera exigua; conditions: for Median Inhibitory Concentration (IC50), Phagocytosis: injected into L5 larvae with FITC-labeled E. coli; for Inhibition of phagocytosis (in words): S. exigua hemocytes
Description: For in vivo phagocytosis assay, test chemical (1 µL) and FITC-labeled E. coli (5 µL, 5 × 10^4 cells/µL) were injected to L5 larva. Hemolymph (50 µL) was collected at 15 min after injection and mixed with 50 µL of ice cold ACB. After centrifugation at 700 × g for 3 min at 4 °C, the supernatant plasma was replaced with 100 µL of TC-100 insect cell culture medium (Welgene, Daegu, Korea). Hemocyte suspension (10 µL) was placed onto a slide and over laid with 10 µL glycerol (50%, v/v). Hemocytes undergoing phagocytosis were determined by fluorescence-emitting cells under a fluorescence microscope (Leica, Wetzlar, Germany) at 40× magnification. For in vitro phagocytosis, hemocyte suspension and labeled bacteria mixture (30 µL) were incubated in a dark place for 1 h at room temperature. Hemocytes were then washed three times with PBS by centrifugation at 700× g for 2 min at 4 °C and finally resuspended in TC-100 medium. This hemocyte suspension was observed under the fluorescence microscope in FITC or DIC mode after forming monolayers on glass slides.

S. exigua larvae [4] = assay: Feeding toxicity, leaf-dipping method; assay type: in vivo, Spodoptera exigua; conditions: for Insecticidal Activities, Feeding: median lethal concentration by Probit analysis, leaf-dipping
Description: (§2) For the virulence test of X. hominickii, 24 h-cultured cells (10^8 cfu/mL) were diluted with sterile PBS. After surface sterilization with 95% ethanol, each L5 larva was injected with 1 µL of test compound (1 µg/larva) along with bacterial suspension (10^2 cfu/larva). Injection was performed through the first abdominal proleg using a micro syringe. Injected larvae were incubated at room temperature individually in 9 cm Petri dishes. For oral toxicity assay of B. thuringiensis, a small piece (2 × 2 cm) of Chinese cabbage was dipped in 500 ppm of Bt or a mixture of Bt (500 ppm) with 500 ppm of test chemical for 5 min. After a brief (5 min) drying under a dark condition, the treated leaf was supplied to individual test larva in 9 cm Petri dish for 24 h at room temperature. After 24 h, larvae were fed with fresh cabbage leaves. Each treatment was replicated three times with 10 larvae per replication. […] Larvae were considered dead if they were unable to move in a coordinated manner when prodded with a blunt probe.
All data for continuous variables were subjected to one-way analysis of variance (ANOVA) using PROG GLM in SAS program. Mortality data were subjected to arcsine transformation and used for ANOVA. Means were compared with the least significant difference (LSD) test at Type I error of 0.05. Median toxicity values such as median lethal dose (LD50), median lethal concentration (LC50), median lethal time (LT50), and median inhibition concentrations (IC50) were calculated by Probit analysis using EPA Probit Analysis Program, ver. 1.5 (U.S. Environmental Protection Agency, Washington, DC, USA).
These compounds were also tested for their feeding toxicities using a leaf-dipping method.

cytosolic PLA2 (cPLA2) = assay: Cytosolic PLA2 (cPLA2) activity; assay type: biochemical, Spodoptera exigua; conditions: for Median Inhibitory Concentrations (IC50), cPLA2: S. exigua, synthetic compounds; for Potency for inhibiting cPLA2 (in words): based on IC50 values
Description: as §1

Sf9 cells = assay: Cytotoxicity test (MTT); assay type: cell-based; conditions: for Cytotoxicity (MIC, minimum inhibitory concentration): MTT, 24 h at 28 °C
Description: Cytotoxicity of each secondary metabolite was evaluated by 3-(4,5 dimethylthiazol-2-yl)-2,5-diphenyl tetrazolium bromide (MTT) assay according to the method described by Mollah et al.. with a slight modification. Briefly, Sf9 cells (1.2 × 10^4 cells in 200 μL of TC-100 medium) were seeded into each 96-well. After adding each test chemical (2.5 μL in DMSO), the plate was incubated at 28 °C for 24 h. Control cells were treated with 2.5 μL of DMSO. After 24 h incubation, 10 μL of MTT (5 mg/mL in PBS) was added to each well and cells were cultured for another 4 h at 28 °C. Formazan granules formed in viable cells were dissolved in 50 μL of DMSO. Absorbance was then measured at 540 nm using a microplate reader (Victor Multilabel Plate Reader, PerkinElmer, Waltham, MA, USA).

S. exigua larvae [5] = assay: Insecticidal activity by injection; assay type: in vivo, Spodoptera exigua; conditions: for Insecticidal Activities, Injection: median lethal dose by Probit analysis, S. exigua larvae
Description: All data for continuous variables were subjected to one-way analysis of variance (ANOVA) using PROG GLM in SAS program. Mortality data were subjected to arcsine transformation and used for ANOVA. Means were compared with the least significant difference (LSD) test at Type I error of 0.05. Median toxicity values such as median lethal dose (LD50), median lethal concentration (LC50), median lethal time (LT50), and median inhibition concentrations (IC50) were calculated by Probit analysis using EPA Probit Analysis Program, ver. 1.5 (U.S. Environmental Protection Agency, Washington, DC, USA). […]

S. exigua larvae [6] = assay: Effect on pathogenicity of Bacillus thuringiensis (oral, leaf dipping); assay type: in vivo, Spodoptera exigua; conditions: cabbage leaf dipped in Bt 500 ppm mixed with inhibitor 500 ppm; 4 days after treatment
Description: as §2

S. exigua larvae [7] = assay: Effect on pathogenicity of X. hominickii (co-injection); assay type: in vivo, Spodoptera exigua; conditions: L5 larvae injected with Xh 10^2 cfu/larva along with inhibitor (5 µg/larva Fig. 7A; 2 µg/larva Fig. S6); 4 days after treatment
Description: as §2, with “After surface sterilization with 95% ethanol, each L5 larva was injected with 1 µL of test compound (1 µg/larva) along with bacterial suspension (10^2 cfu/larva).” left out

Structure (SMILES)	Median Inhibitory Concentrations (IC50), Total PLA2 [1]	Median Inhibitory Concentration (IC50), Nodulation [2]	Median Inhibitory Concentrations (IC50), sPLA2 (secretory PLA2 (sPLA2))	Potency for inhibiting sPLA2 (in words) (secretory PLA2 (sPLA2))	Median Inhibitory Concentration (IC50), Phagocytosis [3]	Insecticidal Activities, Feeding (S. exigua larvae [4])	Median Inhibitory Concentrations (IC50), cPLA2 (cytosolic PLA2 (cPLA2))	Cytotoxicity (MIC, minimum inhibitory concentration) (Sf9 cells)	Insecticidal Activities, Injection (S. exigua larvae [5])	Inhibitory activity against hemocyte PLA2 (in words) [1]	Inhibition of nodule formation (in words) ([2]; S. exigua L5 larvae, E. coli challenge)	Inhibition of phagocytosis (in words) [3]	Effect on B. thuringiensis insecticidal activity (S. exigua larvae [6])	Feeding (oral) toxicity (in words) (S. exigua larvae [4]; leaf-dipping method)	Potency for inhibiting cPLA2 (in words) (cytosolic PLA2 (cPLA2))	Concentration inducing cytotoxicity (Sf9 cells)	Killing of larvae after injection (in words) (S. exigua larvae [5]; individually injected to S. exigua larvae)	Effect on X. hominickii pathogenicity / insecticidal activity (S. exigua larvae [7])	Rescue of suppressed nodule formation by AA addition ([2]; AA 10 µg/larva co-injected with extract, subfraction or compound and E. coli)	Reversal of suppressed phagocytosis by AA addition ([3]; AA 10 µg/larva with the eight compounds)
CCCCCCCCCCCCCCCCCCCCCC [DS, docosane]	0.81 ± 0.04 b µg/mL	1.11 ± 0.09 b ng/larva	1.22 ± 0.15 a µg/mL	least potent	8.40 ± 0.68 b ng/larva	3554.0 ± 100.18 a µg/mL	0.32 ± 0.02 b µg/mL	1.0 ± 0.03 a µg/mL	49.54 ± 4.55 a µg/larva	–	–	–	–	–	–	–	–	–	–	–
CCOc1cc(O)ccc1OC [EMP, 3-ethoxy-4-methoxyphenol]	0.04 ± 0.02 e µg/mL	0.20 ± 0.02 f ng/larva	0.03 ± 0.005 f µg/mL	highly potent	0.20 ± 0.03 g ng/larva	2100.34 ± 40.19 f µg/mL	0.05 ± 0.004 ef µg/mL	0.1 ± 0.01 f µg/mL	18.95 ± 2.61 d µg/larva	most potent	high potency	highly potent	significantly (p < 0.05) increased	most potent	highly potent	less than 1 µg/mL	most potent	significantly (p < 0.05) increased	–	–
CCCCCC=CCC=CCC=CCC=CCCCC(=O)O [AA, 5,8,11,14-eicosatetraenoic acid, reference compound]	–	–	–	–	–	–	–	–	–	–	–	–	–	–	–	–	–	–	significantly (p < 0.05) rescued	reversed
CCCCC(CC)CO (stereo not shown) [EH, 2-ethyl-1-hexanol]	0.14 ± 0.01 µg·days/mL	0.40 ± 0.03 e ng/larva	0.05 ± 0.004 f µg/mL	highly potent	–	2456.35 ± 50.88 e µg/mL	0.11 ± 0.01 µg·days/mL	0.20 ± 0.02 e µg/mL	29.90 ± 3.05 c µg/larva	–	–	–	–	–	–	–	–	–	–	–
N#Cc1ccccc1C(=O)O [CBA, o-cyanobenzoic acid]	0.86 ± 0.02 a µg/mL	2.50 ± 0.22 a ng/larva	1.11 ± 0.11 a µg/mL	least potent	32.50 ± 2.35 a ng/larva	2850.65 ± 80.68 c µg/mL	0.38 ± 0.03 a µg/mL	0.50 ± 0.02 c µg/mL	54.96 ± 4.03 a µg/larva	least potent	–	least potent	–	–	least potent	–	–	–	–	–
